Here are results for two compounds from patent US20230382900A1, “INHIBITORS OF BTK” (Newave Pharmaceutical Inc., priority 2020, published 2023).

Structures are written as SMILES. Read-outs that look alike come from different tables or passages of the source.

One data set has as its target human recombinant WT BTK (Homo sapiens, UniProt Q06187). The experiment in a line: Caliper-based biochemical enzymatic assay (IC50) against WT BTK. The note with it: WT BTK 0.5 nM, ATP 16 μM, peptide substrate 1 μM, room temperature 3 h. As for the experimental part:
The reaction was then terminated with EDTA, final concentration 20 mM and the phosphorylated reaction product was quantified on a Caliper Desktop Profiler (Caliper LabChip 3000). Percent inhibition was calculated for each compound dilution and the concentration that produced 50% inhibition was calculated.

The conditions of data set [1]: rats, treatment for longer than 7 days; cited from earlier work.
For data set [2] the following is noted: formulations containing GDC-0853; cited from earlier work.
The conditions of data set [3]: dogs, even at higher doses; cited from earlier work.
For data set [4] the following is noted: mice, even at higher doses; cited from earlier work.

Sequence of human recombinant WT BTK (Q06187 whole entry): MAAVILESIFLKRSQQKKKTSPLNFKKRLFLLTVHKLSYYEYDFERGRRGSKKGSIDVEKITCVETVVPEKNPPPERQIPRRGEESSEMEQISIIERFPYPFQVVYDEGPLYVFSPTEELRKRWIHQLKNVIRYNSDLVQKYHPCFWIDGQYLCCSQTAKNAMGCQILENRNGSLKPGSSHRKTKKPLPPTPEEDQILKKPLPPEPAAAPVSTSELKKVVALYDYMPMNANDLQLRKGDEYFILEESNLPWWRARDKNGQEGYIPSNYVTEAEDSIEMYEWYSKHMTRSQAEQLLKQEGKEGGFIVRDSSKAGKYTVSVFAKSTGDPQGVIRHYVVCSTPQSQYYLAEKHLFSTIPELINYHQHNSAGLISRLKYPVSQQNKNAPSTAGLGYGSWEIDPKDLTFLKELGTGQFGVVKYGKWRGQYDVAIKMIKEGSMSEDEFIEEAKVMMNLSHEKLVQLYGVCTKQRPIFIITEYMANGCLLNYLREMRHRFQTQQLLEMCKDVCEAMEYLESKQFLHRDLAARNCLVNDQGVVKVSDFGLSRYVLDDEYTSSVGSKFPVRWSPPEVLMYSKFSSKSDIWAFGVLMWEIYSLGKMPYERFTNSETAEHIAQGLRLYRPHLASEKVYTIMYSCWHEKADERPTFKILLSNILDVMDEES

Turning to `C=CC(=O)Nc1cc(Nc2nc(-c3ccnc(NC(=O)c4ccc(C(C)(C)C)cc4)c3CO)cn(C)c2=O)ccc1N1CCN(C2CCOCC2)C[C@@H]1C` [Example 1, 4-tert-butyl-N-[3-(hydroxymethyl)-4-[4-methyl-6-([4-[(2S)-2-methyl-4-(oxan-4-yl)piperazin-1-yl]-3-(prop-2-enamido)phenyl]amino)-5-oxopyrazin-2-yl]pyridin-2-yl]benzamide], at human recombinant WT BTK, the IC50 was determined as 0.64 nM.

Consider `C[C@H]1CN(C2COC2)CCN1c1ccc(Nc2cc(-c3ccnc(N4CCn5c(cc6c5CC(C)(C)C6)C4=O)c3CO)cn(C)c2=O)nc1` [GDC-0853], for which the values for the pancreatic toxicity entry in data set [1], in data set [3] and in data set [4] were “leads to pancreatic toxicity”, “does not occur” and “does not occur”, respectively. Also, the “tolerability in Phase I clinical trials” value in data set [2] is “well-tolerated”.
